These results are taken from patent US6833372B2, “Non-peptide GnRH agents, Pharmaceutical compositions, and methods for their use” (Pfizer, Inc., priority 2002, dated 2004).

A short description of data set [1]: Pharmacokinetics in rats (jugular vein cannula, plasma LC-MS). It is filed as in vivo, Rat. To be noted: for Cmax / half-life / Tmax: rat, plasma, po. On the procedure: Rats (male or female, 200-225 g) were prepared with indwelling jugular vein cannula as described by Harms et al., Applied Physiol. 36:391-398 (1974), and allowed to recover overnight with free access to the standard vivarium chow and water. […] […] The blood samples were withdrawn at specific times, plasma was immediately separated and compound extracted with ethyl acetate. The samples were analyzed by LC-MS using 30-90% gradient of ACN in 50 mM ammonium acetate.
The pharmacokinetic parameters were calculated using WinNonlin software (Scientific Consulting Inc.). The bioavailability was calculated as AUCp.o./AUCi.v., where AUCp.o. and AUC i.v. are areas under the plasma concentration-time curve after oral and i.v. administration, respectively.

Data set [2] is described as follows: In vitro metabolism: disappearance of parent compound in human liver microsomes. To be noted: 5 uM compound, 0.5 mg/ml protein, 2 mM NADPH, 30 minutes 37° C. It is filed as in vitro ADME. The method in brief:
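Microsomes from human, rat (male, female), dog and monkey liver incubated with 5 uM compound, 0.5 mg/ml protein and 2 mM NADPH in 50 mM K phosphate, pH 7.4, for 30 min at 37° C. Reaction stopped with acetonitrile; parent compound remaining measured by LC-MS.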

Another data set has as its target T1, mouse GnRH receptors (Mus musculus, UniProt Q01776).
T1 construct: expressed in transfected cells; host or cells: HEK 293 cells, stably transfected; membranes
T1 sequence (Q01776 1-327): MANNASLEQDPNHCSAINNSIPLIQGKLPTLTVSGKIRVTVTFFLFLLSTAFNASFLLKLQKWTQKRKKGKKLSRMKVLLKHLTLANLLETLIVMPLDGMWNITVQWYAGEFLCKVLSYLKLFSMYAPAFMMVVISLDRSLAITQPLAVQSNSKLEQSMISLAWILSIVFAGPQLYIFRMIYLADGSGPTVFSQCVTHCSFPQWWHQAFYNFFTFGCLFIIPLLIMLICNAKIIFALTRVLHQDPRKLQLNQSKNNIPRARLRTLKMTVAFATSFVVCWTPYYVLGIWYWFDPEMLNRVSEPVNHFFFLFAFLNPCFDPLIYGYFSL
As to the kind of experiment: Radioligand binding: inhibition of 125I-GnRH-A binding to mouse GnRH receptor membranes. The settings on record: HEK 293 cell membranes. On the procedure: HEK 293 cells stably transfected with mouse or human GnRH receptors as described above were grown in Dulbecco's high-glucose, modified Eagle's medium (DMEM) supplemented with 0.2% G418, 10% fetal bovine serum (FBS) and 100 U/mL penicillin/streptomycin. GH3 cells stably transfected with the rat GnRH receptor (GGH3) were provided by Dr. William Chin (Harvard Medical School, Boston, Mass.). These cells have been extensively characterized previously (Kaiser et al., 1997). The cells were grown in low glucose DMEM containing: 100U/mL penicillin/streptomycin, 0.6% G418 and 10% heat-inactivated FBS.
HEK 293 cells containing mouse or human receptors, or rat pituitaries (Pel Freez Biologicals, Rogers, Ark.) were homogenized in buffer A containing: 50 mM Tris (pH 7.4), 0.32 M sucrose, 2 mM EGTA, 1 mM PMSF, 5 μg/ml aprotinen, 5 μg/ml Pepstatin A, and 1 μg/ml leupeptin. Homogenized cells were centrifuged at 4° C. at 20,000×g for 25 minutes, re-suspended in buffer A and re-centrifuged at 4° C. at 20,000×g for an additional 25 minutes. Total membrane protein was determined with a BCA kit (Pierce, Rockford, Ill.). Membranes were stored at −70° C. at a final membrane protein concentration of approximately 5 mg/ml.
The radioiodinated agonist analog of GnRH, [des-Gly^10,D-Ala^6]GnRH ethylamide (^125I-GnRH-A), was used as the radioligand. […] The reaction mixture was vortexed and incubated for 1 minute at room temperature. After one minute, the mixture was vortexed and allowed to incubate for an additional minute. 2 ml of 0.5 M acetic acid/1% BSA was added to the reaction tube and the mixture was added to a C18 Sep-Pak cartridge. The cartridge was washed with subsequent washes of 5 ml H2O and 5 ml 0.5 M acetic acid and then eluted with 5×1 ml of 60% CH3CN/40% 0.5 M acetic acid. The eluate was diluted with 3× volume of HPLC buffer A (0.1% TFA in H2O) and loaded onto a C18 column. The iodinated product was eluted over 20-25 min with a gradient of 25-100% CH3CN containing 0.1% TFA. The radioactive fractions (750 μl/fraction) were collected into clean polypropylene tubes containing 100 μl of 10% BSA. Fractions were assessed for biological activity by radioligand binding. Specific activity of the radioligand was approximately 2200 Ci/mmol.
Membranes were diluted to 0.01-0.5 mg/ml (depending upon the species of receptor) with assay buffer containing 50 mM HEPES (pH 7.4), 1 mM EDTA, 2.5 mM MgCl2, and 0.1% BSA. Membranes (diluted to utilize similar receptor numbers between assays) were incubated with approximately 0.04-0.06 nM ^125I-GnRH-A in the presence or absence of competing agents (0.1-10,000 nM) in a total volume of 200 μl in 96-well polypropylene plates for 1 hour at room temperature. Assays were stopped by rapid filtration onto 96-well GF/C filters soaked in 0.1% polyethylenimine (PEI) utilizing a Packard 96-well cell harvester. Filters were washed three times with ice-cold PBS (50 mM NaPO4, 0.9% NaCl, 2 mM MgCl2, and 0.02% NaN3, pH 7.4). 35 μl of scintillation cocktail was added to each filter well and filters were counted on a Packard Topcount. Control dose-response curves were generated to GnRH (0.1 nM-100 nM) in each competition binding experiment. Ki values were calculated from IC50 values according to Cheng et al., Biochemical Pharmacol. 22: 3099-3108, 1973. [formula]

[3] abbreviates: female rat, 10 mg/kg as 5 mg/ml solution in 10% DMSO, 10% cremophor, 80% saline (footnote 5).
The mark [4] stands for this setting: female, 10 mg/kg, female rat, 10 mg/kg as 5 mg/ml solution in 10% DMSO, 10% cremophor, 80% saline (footnote 5), read-out: FR Cmax.
The mark [5] stands for this setting: female, 10 mg/kg, female rat, 10 mg/kg as 5 mg/ml solution in 10% DMSO, 10% cremophor, 80% saline (footnote 5), read-out: FR T1/2 hr (converted).
The mark [6] stands for this setting: female, 10 mg/kg, female rat, 10 mg/kg as 5 mg/ml solution in 10% DMSO, 10% cremophor, 80% saline (footnote 5), read-out: FR Tmax hr.

Structures are written as SMILES. Read-outs that look alike come from different tables or passages of the source.

Consider `COc1nc(OC)c(NC(=O)c2ccc(Cc3cc4c(cc3C)C(C)(C)OC4(C)C)o2)c(OC)n1` [Example A1, 5-(1,1,3,3,6-Pentamethyl-1,3-dihydro-isobenzofuran-5-ylmethyl)-furan-2-carboxylic Acid (2,4,6-trimethoxy-pyrimidin-5-yl)-amide], for which, in data set [1] (female rat, 10 mg/kg as 5 mg/ml solution in 10% DMSO 20% Labrasol, 70% saline (footnote 4)), the “FR Fp.o.” value is reported as 37%^4. The Cmax in data set [1] (female, 10 mg/kg, female rat, 10 mg/kg as 5 mg/ml solution in 10% DMSO 20% Labrasol, 70% saline (footnote 4), read-out: FR Cmax) came to 1400 nM; in data set [1] (male, 10 mg/kg, male rat, 10 mg/kg as 5 mg/ml solution in 10% DMSO, 20% Labrasol, 70% saline (footnote 1), read-out: MR Cmax), 100 nM. Also, the half-life in data set [1] (female, 10 mg/kg, female rat, 10 mg/kg as 5 mg/ml solution in 10% DMSO 20% Labrasol, 70% saline (footnote 4), read-out: FR T1/2 hr (converted)) was 5.1 h; in data set [1] (male, 10 mg/kg, male rat, 10 mg/kg as 5 mg/ml solution in 10% DMSO, 20% Labrasol, 70% saline (footnote 1), read-out: MR T1/2 hr (converted)), 1.5 h. The Tmax was determined as 1 h in data set [1] (female, 10 mg/kg, female rat, 10 mg/kg as 5 mg/ml solution in 10% DMSO 20% Labrasol, 70% saline (footnote 4), read-out: FR Tmax hr) and 1 h in data set [1] (male, 10 mg/kg, male rat, 10 mg/kg as 5 mg/ml solution in 10% DMSO, 20% Labrasol, 70% saline (footnote 1), read-out: MR Tmax hr). In addition, in data set [1] (male rat, 10 mg/kg as 5 mg/ml solution in 10% DMSO, 20% Labrasol, 70% saline (footnote 1)), the “MR Fp.o.” value came out at 6%^1. Moreover, the “Human % rem. 30′” value in data set [2] is recorded as 60%. In addition, the affinity at mouse GnRH receptors corresponds to a Ki of 4.2 nM.
`COc1nc(OCCO)nc(OC)c1NC(=O)c1ccc(Cc2cc3c(cc2C)C(C)(C)OC3(C)C)o1` [Example A3, 5-(1,1,3,3,6-Pentamethyl-1,3-dihydro-isobenzofuran-5-ylmethyl)-furan-2-carboxylic acid [2-(2-hydroxy-ethoxy)-4,6-dimethoxy-pyrimidin-5-yl]-amide]: the “FR Fp.o.” value in data set [1] (setting [3]) is 60%^5. Further, the highest concentration (Cmax) in data set [1] (setting [4]) amounted to 4000 nM; in data set [1] (male, 20 mg/kg, male rat, 20 mg/kg as 10 mg/ml in Labrasol/H2O 1/1 (footnote 2), read-out: MR Cmax), 3200 nM; in data set [1] (male, 50 mg/kg, male rat, 50 mg/kg in 50 mg/ml PG (footnote 2), read-out: Cmax) it was 3700 nM. Further, in data set [1] (setting [5]), the half-life is 2.2 h. Besides, the time to peak (Tmax) in data set [1] (setting [6]) turned out to be 1 h; in data set [1] (male, 20 mg/kg, male rat, 20 mg/kg as 10 mg/ml in Labrasol/H2O 1/1 (footnote 2), read-out: MR Tmax hr), 1 h; in data set [1] (male, 50 mg/kg, male rat, 50 mg/kg in 50 mg/ml PG (footnote 2), read-out: Tmax), 0.5 h. The “Human % rem. 30′” value in data set [2] is on record as 83%.
Consider `COc1nc(N(C)C)nc(OC)c1NC(=O)c1ccc(Cc2cc3c(cc2C)C(C)(C)CCC3(C)C)o1` [Example B2, 5-(3,5,5,8,8-Pentamethyl-5,6,7,8-tetrahydro-naphthalen-2-ylmethyl)-furan-2-carboxylic Acid (dimethylamino-dimethoxy-pyrimidin-5-yl)-amide], for which the “FR Fp.o.” value in data set [1] (female rat, 6 mg/kg as 3 mg/ml solution in 6% DMSO, 6% cremophor, 88% saline (footnote 6)) came out at 10%^6. Besides, the Cmax in data set [1] (female, 6 mg/kg, female rat, 6 mg/kg as 3 mg/ml solution in 6% DMSO, 6% cremophor, 88% saline (footnote 6), read-out: FR Cmax) was determined as 900 nM. In data set [1] (female, 6 mg/kg, female rat, 6 mg/kg as 3 mg/ml solution in 6% DMSO, 6% cremophor, 88% saline (footnote 6), read-out: FR T1/2 hr (converted)), the half-life is 5.7 h. Further, the time of peak concentration (Tmax) in data set [1] (female, 6 mg/kg, female rat, 6 mg/kg as 3 mg/ml solution in 6% DMSO, 6% cremophor, 88% saline (footnote 6), read-out: FR Tmax hr) came to 1 h. For the same compound, the “Human % rem. 30′” value in data set [2] was 40%. On mouse GnRH receptors, the Ki amounted to 3.4 nM.
As to `COc1nc(OC)c(NC(=O)c2ccc(Cc3cc4c(cc3C)C(C)(C)CCC4(C)C)o2)c(OC)n1` [Example C1, 5-(3,5,5,8,8-Pentamethyl-5,6,7,8-tetrahydro-naphthalen-2-ylmethyl)-furan-2-carboxylic Acid (2,4,6-trimethoxy-pyrimidin-5-yl)-amide], in data set [1] (setting [3]), the “FR Fp.o.” value turned out to be 56%^5. In data set [1] (setting [4]), the Cmax worked out at 800 nM. Further, the half-life in data set [1] (setting [5]) is 2 h. The time of peak concentration (Tmax) in data set [1] (setting [6]) was 2 h. In addition, in data set [2], the “Human % rem. 30′” value amounted to 35%. Moreover, the inhibition constant (Ki) on mouse GnRH receptors was found to be 0.42 nM.
